Activity calls are given as the source filed them. The rule behind the calls is not given here.
How the values were obtained:
Mus musculus [1] = test: Antiinflammatory activity in TPA-induced ICR mouse ear edema model assessed as reduction in number of neutrophils at 1 mg/ear applied topically measured 4 hrs post-TPA challenge by giemsa staining-based microscopic method; type: functional, organism-based
Mus musculus [2] = test: Antiinflammatory activity in TPA-induced ICR mouse ear edema model assessed as reduction in neutrophil content AUC at 1 mg/ear applied topically measured 4 hrs post-TPA challenge by giemsa staining-based microscopic method relative to control; type: functional; set-up: scale not given: the % may be the effect or the level left
Mus musculus [3] = test: Antiinflammatory activity in ICR mouse assessed as inhibition of TPA-induced ear edema by measuring reduction in weight of ear punches applied topically measured 4 hrs post TPA-challenge relative to control; type: functional
Mus musculus [4] = test: Antiinflammatory activity in ICR mouse assessed as inhibition of TPA-induced ear edema by measuring reduction in weight of ear punches applied topically measured 4 hrs post TPA-challenge; type: functional
Mus musculus [5] = test: Antiinflammatory activity in TPA-induced ICR mouse ear edema model assessed as reduction in monocytes content AUC at 1 mg/ear applied topically measured 4 hrs post TPA-challenge giemsa staining-based microscopic method; type: functional; set-up: scale not given: the % may be the effect or the level left
Mus musculus [6] = test: Antiinflammatory activity in ICR mouse assessed as inhibition of TPA-induced ear edema by measuring reduction in weight of ear punches up to 1.25 mg/ear applied topically measured 4 hrs post TPA-challenge relative to control; type: functional
Mus musculus [7] = test: Potency index, ratio of indomethacin ED50 to test compound ED50 for antiinflammatory activity in ICR mouse assessed as inhibition of TPA-induced ear edema by measuring reduction in weight of ear punches applied topically; type: functional
Mus musculus [8] = test: Antiinflammatory activity in TPA-induced ICR mouse ear edema model assessed as reduction in neutrophil content AUC at 5.7 mg/ear applied topically measured 4 hrs post-TPA challenge by giemsa staining-based microscopic method relative to control; type: functional; set-up: scale not given: the % may be the effect or the level left
Mus musculus [9] = test: Antiinflammatory activity in TPA-induced ICR mouse ear edema model assessed as reduction in neutrophil content at 5.7 mg/ear applied topically by giemsa staining-based microscopic method; type: functional, organism-based; conditions: TDE = time-dependent effect
Mus musculus [10] = test: Antiinflammatory activity in TPA-induced ICR mouse ear edema model assessed as reduction in number of neutrophils at 5.7 mg/ear applied topically measured 4 hrs post-TPA challenge by giemsa staining-based microscopic method; type: functional, organism-based
Mus musculus [11] = test: Antiinflammatory activity in TPA-induced ICR mouse ear edema model assessed as reduction in monocytes content AUC at 5.7 mg/ear applied topically measured 4 hrs post TPA-challenge giemsa staining-based microscopic method; type: functional; set-up: scale not given: the % may be the effect or the level left
Mus musculus [12] = test: Antiinflammatory activity in TPA-induced ICR mouse ear edema model assessed as reduction in monocyte content at 5.7 mg/ear applied topically by giemsa staining-based microscopic method; type: functional, organism-based; conditions: TDE = time-dependent effect
Mus musculus [13] = test: Antiinflammatory activity in TPA-induced ICR mouse ear edema model assessed as reduction in number of neutrophils at 10 mg/ear applied topically measured 4 hrs post-TPA challenge by giemsa staining-based microscopic method; type: functional, organism-based
Mus musculus [14] = test: Antiinflammatory activity in TPA-induced ICR mouse ear edema model assessed as reduction in monocyte content at 10 mg/ear applied topically by giemsa staining-based microscopic method; type: functional, organism-based; conditions: TDE = time-dependent effect
Mus musculus [15] = test: Antiinflammatory activity in TPA-induced ICR mouse ear edema model assessed as reduction in monocytes content AUC at 10 mg/ear applied topically measured 4 hrs post TPA-challenge giemsa staining-based microscopic method; type: functional; set-up: scale not given: the % may be the effect or the level left
Mus musculus [16] = test: Antiinflammatory activity in TPA-induced ICR mouse ear edema model assessed as reduction in neutrophil content AUC at 10 mg/ear applied topically measured 4 hrs post-TPA challenge by giemsa staining-based microscopic method relative to control; type: functional; set-up: scale not given: the % may be the effect or the level left
Mus musculus [17] = test: Antiinflammatory activity in TPA-induced ICR mouse ear edema model assessed as reduction in neutrophil content at 10 mg/ear applied topically by giemsa staining-based microscopic method; type: functional, organism-based; conditions: TDE = time-dependent effect
Mus musculus [18] = test: Antiinflammatory activity in TPA-induced ICR mouse ear edema model assessed as reduction in monocyte content at 3 mg/ear applied topically by giemsa staining-based microscopic method; type: functional, organism-based; conditions: TDE = time-dependent effect
Mus musculus [19] = test: Antiinflammatory activity in TPA-induced ICR mouse ear edema model assessed as reduction in monocytes content AUC at 3 mg/ear applied topically measured 4 hrs post TPA-challenge giemsa staining-based microscopic method; type: functional; set-up: scale not given: the % may be the effect or the level left
Mus musculus [20] = test: Antiinflammatory activity in TPA-induced ICR mouse ear edema model assessed as reduction in neutrophil content at 3 mg/ear applied topically by giemsa staining-based microscopic method; type: functional, organism-based; conditions: TDE = time-dependent effect
Mus musculus [21] = test: Antiinflammatory activity in TPA-induced ICR mouse ear edema model assessed as reduction in number of neutrophils at 3 mg/ear applied topically measured 4 hrs post-TPA challenge by giemsa staining-based microscopic method; type: functional, organism-based
Mus musculus [22] = test: Antiinflammatory activity in TPA-induced ICR mouse ear edema model assessed as reduction in neutrophil content AUC at 3 mg/ear applied topically measured 4 hrs post-TPA challenge by giemsa staining-based microscopic method relative to control; type: functional; set-up: scale not given: the % may be the effect or the level left

SMILES	%max (Mus musculus [3]) [%]	ED50 (Mus musculus [4]) [mg]	inhibition (Mus musculus [4])	Ratio ED50 (Mus musculus [7])	other results
COc1ccc2c(c1)c(CC(=O)O)c(C)n2C(=O)c1ccc(Cl)cc1 [INDOMETHACIN]	99.3	0.49	Dose-dependent effect	–	Activity (Mus musculus [1]): Active; Activity (Mus musculus [2]): 57.7%; Activity (Mus musculus [5]): 64.2%; inhibition (INH) (Mus musculus [6]): 14.6 - 99.3%
COc1ccc(CCNC(C)(CO)P(=O)(OC)OC)cc1OC (racemic)	94.6	0.99 to 1	Dose-dependent effect	0.48	–
COP(=O)(OC)C(C)(COC(C)=O)N[C@@H](C)c1ccccc1 (mixture of isomers)	96.1	0.73 to 1.37	Dose-dependent effect	0.67	Activity (Mus musculus [8]): 46.7%; Activity (Mus musculus [9]): Tde; Activity (Mus musculus [10]): Active; Activity (Mus musculus [11]): 18.9 - 34.1%; Activity (Mus musculus [12]): Tde
COc1ccc(CCNC(C)(COC(C)=O)P(=O)(OC)OC)cc1OC (racemic)	97	0.77 to 1.29	Dose-dependent effect	0.37	Activity (Mus musculus [13]): Active; Activity (Mus musculus [14]): Tde; Activity (Mus musculus [15]): 18.9 - 34.1%; Activity (Mus musculus [16]): 62.6%; Activity (Mus musculus [17]): Tde
COP(=O)(OC)C(C)(COC(C)=O)NCc1ccccc1 (racemic)	97.6	0.68 to 1.46	Dose-dependent effect	0.33	Activity (Mus musculus [13]): Active; Activity (Mus musculus [14]): Tde; Activity (Mus musculus [15]): 18.9 - 34.1%; Activity (Mus musculus [16]): 63%; Activity (Mus musculus [17]): Tde
COP(=O)(OC)C(C)(CO)NCc1ccccc1 (racemic)	81.6	0.28 to 3.63	Dose-dependent effect	0.13	–
COP(=O)(OC)C(C)(O)COC(C)=O (racemic)	47.2	0.1 to 10.14	–	0.04	–
C=CCNC(C)(COC(C)=O)P(=O)(OC)OC (racemic)	74.3	0.59 to 1.68	Dose-dependent effect	0.28	–
COc1ccc(CNC(C)(COC(C)=O)P(=O)(OC)OC)cc1 (racemic)	66.1	0.58 to 1.73	–	0.29	–
COP(=O)(OC)C(C)(COC(C)=O)NCC1CCCCC1 (racemic)	93	0.95 to 1.05	Dose-dependent effect	0.5	Activity (Mus musculus [18]): Tde; Activity (Mus musculus [19]): 18.9 - 34.1%; Activity (Mus musculus [20]): Tde; Activity (Mus musculus [21]): Active; Activity (Mus musculus [22]): 62.9%
COP(=O)(OC)C(C)(CO)N[C@@H](C)c1ccccc1 (mixture of isomers)	95.6	0.95 to 1.05	Dose-dependent effect	0.46	–
